Measured values from ChEMBL document CHEMBL5143630, “α-Synuclein binding activity of the plant growth promoter asterubine” (Bioorg Med Chem Lett, 2022).
The source made the active and inactive calls. The rule behind the calls is not given here.

Columns and labels:
[1] = biological target: Alpha-synuclein (Homo sapiens) (UniProt P37840); assay: Binding affinity to human alpha-synuclein expressed in Escherichia coli BL21(DE3) assessed as compound-protein complex formation at ratio of 1:1 incubated at compound:protein ratio of 10:1 for 3 hrs by ESI-MS spectrum analysis
[2] = Cytotoxicity against preformed fibrils-treated mouse TH-positive dopaminergic neurons at 0.1 to 10 uM incubated for 7 days by immunostaining analysis; assay type: toxicity, cell-based; conditions: neuron, 168 h, dose 0.1-10 µM, time 7 day

- Activity [1]: Active
SMILES: CN(C)C(=N)NCCS(=O)(=O)O
- Activity [2]: Non-Toxic
